Measurements taken from US20250101063A1, “POLYPEPTIDE COMPOUND AND USE THEREOF IN TREATMENT OF ENTERITIS” (Sichuan Gooddoctor Panxi Pharmaceutical Co., Ltd., priority 2022, published 2025).
“Also recorded” adds a separate entry of the source. Where no end group is shown, it is not given here.

What was measured:
[1] = test system: zebrafish model of intestinal mucosal injury; assay: Efficacy in relieving colitis: intestinal lumen area in TNBS-treated zebrafish; format: in vivo; details: for Intestinal lumen area (pixels, mean ± SE): 2 days after TNBS, n = 10; for Activity in relieving intestinal lumen dilatation: 1000 μg/mL, significance vs model control group of the same batch; for Intestinal lumen area compared with the model control group (in words): 250, 500, 1000 μg/mL, Table 4
Procedure, shortened: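 TNBS in water for 2 days at 28 °C in 3 dpf wild-type AB zebrafish, then test polypeptide in water for 2 days at 28 °C at 250, 500 or 1000 μg/mL; later rounds used 1000 μg/mL. Prednisone control at 15.0 μg/mL. Intestinal lumen area imaged in 10 fish/group, mean±SE.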

[2] = test system: TNBS-induced model of acute inflammatory bowel disease (UC) in SD rat; assay: TNBS-induced model of acute inflammatory bowel disease (UC) in SD rat; format: in vivo; details: for Body weight, Grouping day (D 0, g): D 0, before treatment; for Body weight, Grouping day (D 0, g) / DAI score, Experimental day 1 (D 1, point) / DAI score, Experimental day 3 (D 3, point) / Body weight, Experimental day 5 (D 5, g): enema once a day; for Body weight, Grouping day (D 0, g) / DAI score AUC(0-14 d) (D 0-D 14) / Weight change range (D 0-D 14, %) / DAI score, Experimental day 1 (D 1, point) / DAI score, Experimental day 3 (D 3, point) / Body weight, Experimental day 5 (D 5, g) / Body weight, Experimental endpoint (D 14, g) / DAI score, Experimental endpoint (D 14, point) / Colon length (cm) / Colon ulcer and inflammation score (point) / Colon ulcer area (cm^2) / Colon weight / Colon weight/length ratio (100* g/cm) / Colonic adhesion score (point): mean ± SD; for DAI score AUC(0-14 d) (D 0-D 14) / Weight change range (D 0-D 14, %) / Body weight, Experimental endpoint (D 14, g) / DAI score, Experimental endpoint (D 14, point) / Colon length (cm) / Colon ulcer and inflammation score (point) / Colon ulcer area (cm^2) / Colon weight / Colon weight/length ratio (100* g/cm) / Colonic adhesion score (point) / Effect on disease progression of ulcerative colitis / DAI scores (in words) / Effect on weight gain inhibition / weight loss response of model animals (in words): enema once a day 14 days; for Colon length (cm) / Colon ulcer and inflammation score (point) / Colon ulcer area (cm^2) / Colon weight / Colon weight/length ratio (100* g/cm) / Colonic adhesion score (point) / Effect on colon atrophy process / colon weight/length ratio (in words) / Effect on gross colon injury status (colonic adhesion, ulcer and inflammation) and colon ulcer area (in words): experimental endpoint; for Overall therapeutic effect in the rat model of ulcerative colitis (in words) / Effect on disease progression of ulcerative colitis / DAI scores (in words) / Effect on weight gain inhibition / weight loss response of model animals (in words) / Effect on colon atrophy process / colon weight/length ratio (in words) / Effect on gross colon injury status (colonic adhesion, ulcer and inflammation) and colon ulcer area (in words): set treatment regimen; for Effect on disease progression of ulcerative colitis / DAI scores (in words) / Effect on weight gain inhibition / weight loss response of model animals (in words) / Effect on colon atrophy process / colon weight/length ratio (in words) / Effect on gross colon injury status (colonic adhesion, ulcer and inflammation) and colon ulcer area (in words): vs model control group
Source text: In this experiment, a rat model of ulcerative colitis was established by administering trinitrobenzene sulfonic acid (TNBS) to laboratory animal male SD rats for a single enema intervention. Acute colitis in rats induced by trinitrobenzene sulfonic acid (TNBS) is an immune response induced by cytokines secreted by Th1 type cells. […] This model is simple to establish and has good reproducibility. It is an experimental animal model widely used in evaluating drugs for the treatment of inflammatory bowel disease. […] During the experimental treatment period (D1-D14), the body weight and general clinical observation indicators (including but not limited to food intake, water intake, activity level and defecation, etc.) of the animals in each experimental group were dynamically collected. At the same time, based on the relevant scoring standards for the disease activity index of ulcerative colitis, the reactivity such as the weight loss degree, stool morphology and trait, and bloody stool of the animals in each experimental group after TNBS induction were scored, and the disease activity index (DAI) of ulcerative colitis was calculated, once a day for 14 consecutive days. At the end point of the experiment, colon tissues of animals in each experimental group were collected, and the length and weight of the colon were measured and then the non-autopsy images were collected. Then the colon was cut open along the intestinal wall longitudinally and autopsy images were collected. Based on the “Criteria for Scoring Gross Morphological Manifestations of the Colon”, the gross damage with respect to colon adhesions, colon ulcers and inflammation of animals in each experimental group was observed and scored. Ulcer images were collected under a stereomicroscope and the area of colon ulcer foci was calculated, followed by routine fixation.

[3] = high dose group (compound 1: 6.0 mg/kg; compound 6: 2.8 mg/kg)
[4] = low dose group (compound 1: 3.0 mg/kg; compound 6: 1.4 mg/kg)
[5] = compound 12: 0.8 mg/kg, mesalazine: 30.0 mg/kg

EPVPQAK [Compound 6]
Intestinal lumen area (pixels, mean ± SE) ([1]; 250 μg/mL in water): 53093 ± 3839 pixels | Intestinal lumen area (pixels, mean ± SE) ([1]; 500 μg/mL in water): 45831 ± 3894 pixels | Intestinal lumen area (pixels, mean ± SE) ([1]; 1000 μg/mL in water): 28429 ± 3711 pixels | Activity in relieving intestinal lumen dilatation [1]: ** (** p < 0.01) | Intestinal lumen area compared with the model control group (in words) [1]: significant statistical differences compared with the model control group | Body weight, Grouping day (D 0, g) [2, 3]: 275.55 ± 7.92 g | Body weight, Grouping day (D 0, g) [2, 4]: 276.61 ± 9.81 g | DAI score AUC(0-14 d) (D 0-D 14) [2, 3]: 39.55 ± 3.99^####++++ | Weight change range (D 0-D 14, %) [2, 3]: 1.50 ± 10.78% | DAI score AUC(0-14 d) (D 0-D 14) [2, 4]: 49.65 ± 3.95 | Weight change range (D 0-D 14, %) [2, 4]: 0.48 ± 9.87% | DAI score, Experimental day 1 (D 1, point) [2, 3]: 4.2 ± 0.8 point | DAI score, Experimental day 1 (D 1, point) [2, 4]: 3.9 ± 0.9 point | DAI score, Experimental day 3 (D 3, point) [2, 3]: 4.8 ± 1.0 point | DAI score, Experimental day 3 (D 3, point) [2, 4]: 5.0 ± 1.7 point | Body weight, Experimental day 5 (D 5, g) [2, 3]: 246.74 ± 22.76 g | Body weight, Experimental day 5 (D 5, g) [2, 4]: 243.72 ± 22.18 g | Body weight, Experimental endpoint (D 14, g) [2, 3]: 279.67 ± 30.93 g | DAI score, Experimental endpoint (D 14, point) [2, 3]: 0.7 ± 1.2 point | Body weight, Experimental endpoint (D 14, g) [2, 4]: 277.96 ± 29.18 g | DAI score, Experimental endpoint (D 14, point) [2, 4]: 1.3 ± 1.2 point | Colon length (cm) [2, 3]: 13.89 ± 1.60 cm | Colon ulcer and inflammation score (point) [2, 3]: 2.50 ± 1.43 point | Colon ulcer area (cm^2) [2, 3]: 3.66 ± 2.36^# cm^2 | Colon weight [2, 3]: 2.41 ± 0.63 g | Colon weight/length ratio (100* g/cm) [2, 3]: 17.70 ± 5.71# 100* g/cm | Colonic adhesion score (point) [2, 3]: 1.30 ± 0.82 point | Colon length (cm) [2, 4]: 13.37 ± 1.40 cm | Colon ulcer and inflammation score (point) [2, 4]: 3.00 ± 0.94 point | Colon ulcer area (cm^2) [2, 4]: 3.46 ± 2.06^## cm^2 | Colon weight [2, 4]: 2.23 ± 0.39 g | Colon weight/length ratio (100* g/cm) [2, 4]: 16.93 ± 3.87^## 100* g/cm | Colonic adhesion score (point) [2, 4]: 1.70 ± 0.67 point | Overall therapeutic effect in the rat model of ulcerative colitis (in words) [2]: significant therapeutic effects | Effect on disease progression of ulcerative colitis / DAI scores (in words) [2]: significant improvement effect on the disease progression of ulcerative colitis | Effect on weight gain inhibition / weight loss response of model animals (in words) [2]: no obvious improved therapeutic effect; also recorded: did not show a significant weight improvement effect | Effect on colon atrophy process / colon weight/length ratio (in words) [2]: colon weight/length ratio was significantly decreased | Effect on gross colon injury status (colonic adhesion, ulcer and inflammation) and colon ulcer area (in words) [2]: obvious therapeutic effects; also recorded: significant therapeutic effects on the gross damage manifestation of the colon

Pro-Val-Pro-Gln (PVPQ; printed: Pro-Val-Pro-Gln) [Compound 12]
Intestinal lumen area (pixels, mean ± SE) ([1]; 250 μg/mL in water): 48857 ± 5649 pixels | Intestinal lumen area (pixels, mean ± SE) ([1]; 500 μg/mL in water): 43802 ± 3228 pixels | Intestinal lumen area (pixels, mean ± SE) ([1]; 1000 μg/mL in water): 26727 ± 2106 pixels | Activity in relieving intestinal lumen dilatation [1]: ** (** p < 0.01) | Intestinal lumen area compared with the model control group (in words) [1]: significant statistical differences compared with the model control group | Body weight, Grouping day (D 0, g) [2, 5]: 276.36 ± 7.47 g | DAI score AUC(0-14 d) (D 0-D 14) [2, 5]: 46.40 ± 3.68 | Weight change range (D 0-D 14, %) [2, 5]: −1.52 ± 12.20% | DAI score, Experimental day 1 (D 1, point) [2, 5]: 4.1 ± 0.6 point | DAI score, Experimental day 3 (D 3, point) [2, 5]: 4.9 ± 1.0 point | Body weight, Experimental day 5 (D 5, g) [2, 5]: 244.90 ± 21.75 g | Body weight, Experimental endpoint (D 14, g) [2, 5]: 272.00 ± 33.21 g | DAI score, Experimental endpoint (D 14, point) [2, 5]: 1.4 ± 1.8 point | Colon length (cm) [2, 5]: 13.74 ± 1.97 cm | Colon ulcer and inflammation score (point) [2, 5]: 2.30 ± 0.82 point | Colon ulcer area (cm^2) [2, 5]: 3.79 ± 1.63^# cm^2 | Colon weight [2, 5]: 2.10 ± 0.19 g | Colon weight/length ratio (100* g/cm) [2, 5]: 15.68 ± 3.14# 100* g/cm | Colonic adhesion score (point) [2, 5]: 1.20 ± 0.63 point | Overall therapeutic effect in the rat model of ulcerative colitis (in words) [2]: significant therapeutic effects | Effect on disease progression of ulcerative colitis / DAI scores (in words) [2]: significant improvement effect on the disease progression of ulcerative colitis | Effect on weight gain inhibition / weight loss response of model animals (in words) [2]: no obvious improved therapeutic effect; also recorded: did not show a significant weight improvement effect | Effect on colon atrophy process / colon weight/length ratio (in words) [2]: colon weight/length ratio was significantly decreased | Effect on gross colon injury status (colonic adhesion, ulcer and inflammation) and colon ulcer area (in words) [2]: obvious therapeutic effects; also recorded: significant therapeutic effects on the gross damage manifestation of the colon
